The nature of data set [1]: Powdered drug mixed with Ocean® and rubbed into the skin over arthritic joints of patients. It counts as in vivo, human. The note with it: for side effects normally encountered when taking the drug: patients unable to continue the drugs because of GI toxicity, transdermal application in Ocean®. An excerpt:
The present invention is a method for delivering drugs transdermally, especially insoluble drugs. The powdered form of a drug, such as that contained in the capsules of Vioxx® and Celebrex®, was mixed with Ocean® to form a mixture. The mixture was then rubbed into the skin at the needed location, for example, an arthritic joint, by volunteer subjects suffering from arthritis in different joints. The Vioxx® or Celebrex® suspension in Ocean® then penetrated the outer layer of the skin, traveled through the stratum corneum, dermis, and hypodermis, and entered the target tissue. […] Therefore, the present invention provides a method of delivery for NSAIDs, such as Vioxx® and Celebrex®, that can inhibit COX-2 at the inflammation site, without ever entering the GI tract, relieving the patient of any GI toxicity that may be caused by the drug.
In summary, the method of this patent for drug delivery has been tried by a few patients with severe arthritis. These patients were unable to continue using either Vioxx® or Celebrex® because of the severe GI toxicity those drugs caused. The patients opened the capsules of the drugs, mixed the powdered drug with Ocean®, and applied the solution to the skin of the arthritic area.

The conditions of data set [2]: cited from earlier work.
Data set [3] can be described thus: Application of Carafate® to root canal wounds or dry sockets in dental patients. It counts as in vivo, human. The note with it: applied to root canal wounds or dry sockets. An excerpt: Wounds in the mouth are especially prone to infection because of the dark, moist environment, the availability of energy sources from the food that is eaten, and the large numbers of microbes in the mouth. After a root canal or removal of a tooth, a patient is especially prone to infection since the open wound is an idea location for bacteria to settle, and because such a wound is hard to clean.

The values that follow come from patent US20040039042A1, “Method of transdermal drug delivery” (priority 2002, published 2004).

For `Cc1ccc(-c2cc(C(F)(F)F)nn2-c2ccc(S(N)(=O)=O)cc2)cc1` [Celebrex®, 4-[5-(4-methylphenyl)-3-(triflouromethyl)-1 H-pyrazol-1-yl] benzenesulfonamide], the “side effects normally encountered when taking the drug” value in data set [1] was “without the side effects”. Besides, in data set [2] (aqueous media), the “solubility in aqueous media” value is “low solubility”.
For `CS(=O)(=O)c1ccc(C2=C(c3ccccc3)C(=O)OC2)cc1` [Vioxx®, 4-[4-(methyl-sulfonyl)phenyl]-3-phenyl-2(5H)-furanone], the “side effects normally encountered when taking the drug” value in data set [1] is “without the side effects”. Further, in data set [1] (patients with severe arthritis, powdered drug from capsules mixed with Ocean®, applied to skin of the arthritic area), the relief from arthritis entry is given as “relief from their arthritis”. Besides, in data set [1] (suspension in Ocean® rubbed into the skin closest to the affected arthritic joint, volunteer subjects), the “time after application until pain and symptoms are reduced” value is “Within minutes”. For the same compound, the solubility in acetone result in data set [2] (acetone) is “sparingly soluble”. In addition, the solubility in ethanol entry in data set [2] (ethanol) was “very slightly soluble”. In addition, the “solubility in isopropyl acetate” value in data set [2] (isopropyl acetate) is reported as “slightly soluble”. The solubility in methanol entry in data set [2] (methanol) is on record as “slightly soluble”. The solubility in octanol entry in data set [2] (octanol) is recorded as “practically insoluble”. Further, the solubility in water entry in data set [2] (water) is on record as “insoluble”.
“α-D-glucopyranoside, β-D-frucofuranosyl-, octakis-(hydrogen sulfate), aluminum complex [Carafate®]”: in data set [3] (a number of dental patients), the “infection of the wound area” value is reported as “inhibits infection”. In data set [3] (dental patients), the healing process entry is “hastens the healing process”; the “pain and swelling in wounds” value is “reduce pain and swelling”.
